The source of these data is ChEMBL document CHEMBL3351647, “Organochalcogen compounds from glycerol: synthesis of new antioxidants” (Bioorg Med Chem, 2014).

Common to all, as to type: physicochemical
Data set [1] is described as follows: Antioxidant activity assessed as inhibition of Fe2+/ascorbic acid-induced linoleic acid peroxidation at 50 uM by spectrophotometry relative to control. Further details: scale not given: the % may be the effect or the level left; call rule not given here.
Data set [2] is described as follows: Antioxidant activity assessed as ABTS radical scavenging activity at 10 uM by spectrophotometry relative to control.
Data set [3] in a line: Antioxidant activity assessed as DPPH radical scavenging activity at 100 uM by spectrophotometry relative to control. In general terms: DPPH is a stable violet radical that fades when it is reduced.
A short description of data set [4]: Antioxidant activity assessed as […] scavenging activity by measuring NaNO2 at 10 uM by spectrophotometry.
Data set [5] is described as follows: Antioxidant activity assessed as inhibition of Fe2+/ascorbic acid-induced linoleic acid peroxidation at 500 uM by spectrophotometry relative to control. Further details: scale not given: the % may be the effect or the level left.
Data set [6] in a line: Antioxidant activity assessed as […] scavenging activity by measuring NaNO2 at 100 uM by spectrophotometry.
The nature of data set [7]: Antioxidant activity assessed as […] scavenging activity by measuring NaNO2 at 500 uM by spectrophotometry.
Data set [8] is described as follows: Antioxidant activity assessed as ferric ion reducing activity at 10 to 500 uM after 40 mins by spectrophotometry relative to control.
A short description of data set [9]: Antioxidant activity assessed as ABTS radical scavenging activity at 500 uM by spectrophotometry relative to control.
Data set [10] in a line: Antioxidant activity assessed as ABTS radical scavenging activity at 50 uM by spectrophotometry relative to control.
Data set [11] is described as follows: Antioxidant activity assessed as inhibition of Fe2+/ascorbic acid-induced linoleic acid peroxidation at 5 uM by spectrophotometry relative to control. Further details: scale not given: the % may be the effect or the level left.
Data set [12] can be described thus: Antioxidant activity assessed as DPPH radical scavenging activity at 10 uM by spectrophotometry relative to control.
Data set [13] can be described thus: Antioxidant activity assessed as DPPH radical scavenging activity at 50 uM by spectrophotometry relative to control.
The nature of data set [14]: Antioxidant activity assessed as ABTS radical scavenging activity at 100 uM by spectrophotometry relative to control.
Data set [15] is described as follows: Antioxidant activity assessed as inhibition of Fe2+/ascorbic acid-induced linoleic acid peroxidation at 10 uM by spectrophotometry relative to control. The arrangement: scale not given: the % may be the effect or the level left.
Data set [16] in a line: Antioxidant activity assessed as DPPH radical scavenging activity at 500 uM by spectrophotometry relative to control.
A short description of data set [17]: Antioxidant activity assessed as inhibition of Fe2+/ascorbic acid-induced linoleic acid peroxidation at 1 uM by spectrophotometry relative to control. Further details: scale not given: the % may be the effect or the level left.
Data set [18] can be described thus: Antioxidant activity assessed as hydroxyl radical scavenging activity.
Data set [19] can be described thus: Antioxidant activity assessed as ABTS radical scavenging activity at 25 uM by spectrophotometry relative to control.
Data set [20] can be described thus: Antioxidant activity assessed as […] scavenging activity by measuring NaNO2 at 50 uM by spectrophotometry.
Data set [21] is described as follows: Antioxidant activity assessed as inhibition of Fe2+/ascorbic acid-induced linoleic acid peroxidation at 100 uM by spectrophotometry relative to control. Further details: scale not given: the % may be the effect or the level left.
A short description of data set [22]: Antioxidant activity assessed as inhibition of Fe2+/ascorbic acid-induced linoleic acid peroxidation by spectrophotometry relative to control.
A short description of data set [23]: Antioxidant activity assessed as ABTS radical scavenging activity at 1 uM by spectrophotometry relative to control.
Data set [24] is described as follows: Antioxidant activity assessed as DPPH radical scavenging activity by spectrophotometry relative to control.
Data set [25] in a line: Antioxidant activity assessed as ABTS radical scavenging activity by spectrophotometry relative to control.
Data set [26] is described as follows: Antioxidant activity assessed as superoxide dismutase-like activity.
Data set [27] in a line: Antioxidant activity assessed as ABTS radical scavenging activity at 5 uM by spectrophotometry relative to control.

With `CC1(C)OCC(C[Se]c2ccccc2)O1` (stereo not given), the Activity is 89.97% in data set [1]; 0% in [2]; 0.63% in data set [3]; 54.43 µM in data set [4]; 81.22% in [5]; 51.95 µM in data set [6]. The Activity in data set [7] is 49.65 µM; in data set [8], “Not Active”; in [9], 4.75%; in data set [10], 1.19%; in data set [11], 94.34%; in data set [12], 0.98%. The Activity in [13] is 0.63%; in [14] it was 1.15%; in data set [15], 86.97%; in data set [16], 1.3%; in [17], 88.37%; in data set [18], “Not Active”. Further, the Activity is 0% in data set [19], 52.5 µM in data set [20] and 86.55% in data set [21].
As for `CC1(C)OCC(C[Te]c2ccccc2)O1` (stereo not given), the Activity in data set [1] came to 43.34%; in [2], 22.72%; in data set [3] it was 22.55%; in [4] it was 64.13 µM; in data set [5], 20.6%; in data set [6] it was 54.93 µM. Also, the Activity is 44.49 µM in data set [7]; “Active” in data set [8]; 99.9% in [9]; 90.64% in data set [10]; 2.18% in data set [23]; 66.29% in data set [11]. For the same compound, the Activity is 3.57% in [12]; 11.08% in data set [13]; 99.5% in data set [14]; 57.39% in [15]; 77.86% in [16]; “Not Active” in data set [26]. For the same compound, the Activity in data set [17] is 79.46%; in [18], “Not Active”; in [19] it was 53.41%; in [20], 55.95 µM; in [21] it was 31.66%; in [27] it was 12.04%. Further, the IC50 (in general, the concentration needed to halve the response being measured) in [22] was 24.5 µM; in data set [24], 309 µM; in [25], 24.5 µM.
For `CC1(C)OCC(CO)O1` (stereo not given), the Activity turned out to be 72.35% in data set [1]; 0% in [2]; 0.98% in data set [3]; 56.6 µM in [4]; 76.4% in data set [5]; 52.22 µM in [6]. The Activity in data set [7] is 54.47 µM; in data set [8], “Not Active”; in [9] it was 9.84%; in [10], 0.85%; in data set [11], 66.2%; in data set [12], 0.54%. The Activity in data set [13] is 0.98%; in [14], 1.7%; in data set [15] it was 79.89%; in [16] it was 0.98%; in data set [17], 72.67%; in data set [18], “Not Active”. Further, the values for the Activity in data set [19], in data set [20] and in data set [21] were 0%, 55.45 µM and 72.48%, respectively.
Turning to `CC1(C)OCC(CSc2ccccc2)O1` (stereo not given), the Activity in [1] came out at 76.51%; in data set [2], 0.47%; in [3], 0.5%; in data set [4], 49.59 µM; in data set [5], 72.46%; in data set [6], 50.48 µM. Also, the Activity in data set [7] is 49.68 µM; in data set [8], “Not Active”; in [9], 0.08%; in data set [10] it was 0.15%; in data set [11], 87.79%; in data set [12], 0.01%. In addition, the Activity in data set [13] is recorded as 1.07%; in [14], 0.36%; in [15], 76.51%; in data set [16], 1.65%; in [17] it was 86.7%; in data set [18], “Not Active”. Further, the Activity in [19] stood at 0%; in data set [20] it was 50.91 µM; in data set [21], 74.88%.
